# Results published in the METLIN SMRT retention time set (Domingo-Almenara et al. 2019).
# Experiment: gradient 5% acetonitrile 3 min, to 50% in 2 min, to 85% in 15 min, held 3 min, 100 µL/min
# Conditions: column: Zorbax Extend-C18 2.1 x 50 mm; eluents: water / acetonitrile, 0.1% formic acid
# In short: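 In both positive and negative ionization mode, a quadrupole time-of-flight mass spectrometer coupled to HPLC analyzed pure standards run in mixtures of ~100 molecules. The Zorbax Extend-C18 column (2.1 × 50 mm, 1.8 μm) was operated at 100 μL/min with water and acetonitrile, each containing 0.1% formic acid. The dead volume was 40 μL and the dwell volume 900 μL. Retention time came from adduct peaks that were computationally picked and individually inspected by hand.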
row,SMILES,RP-LC retention time [s]
1,CCc1cccc(NC(=O)Cc2csc3nc(-c4ccc(C)c(C)c4)cn23)c1,962
2,O=C1CN(Cc2ccc(OC(F)(F)F)cc2)C2(CCCC2)CN1,682
3,CN1CC[C@@H]2CN3CCc4cccc(c43)[C@@H]2C1,644
4,Cc1cc(N2CCN(C(=O)c3ccc(Cl)cc3)CC2)nc(N2CCOCC2)n1,639
5,COc1cccc2c(=O)c(NC(=O)N3CCCC(C(N)=O)C3)c[nH]c12 (stereo not given),580
6,CCCOc1nccnc1NC1CCN(C(=O)c2cccs2)CC1,814
7,CCOc1ccc(-c2n[nH]c3c2C(c2ccc(O)c(OC)c2)NC3=O)cc1 (stereo not given),637
8,COc1ccc(-c2c(C)noc2NC(C)=O)cc1S(=O)(=O)NCCC1=CCCCC1,886
9,COc1cccc(NC(=O)Cc2csc3nc(-c4ccccc4)cn23)c1,791
10,O=C(Cn1nc(-c2ccccc2)c2cc(Cl)ccc21)NC1CCCC1,1130
11,CCN1C(=O)C(C)(C(=O)NCc2ccc(C)cc2)Oc2cccnc21 (stereo not given),912
12,COC(=O)c1cccc(NC(=O)c2c[nH]c3ncccc23)c1,708
13,COC(=O)c1cc2n(n1)CC(C)(C(=O)NC1CCCCC1)N(c1ccccc1F)C2=O (stereo not given),853
14,CC(C)Cc1noc(C2(F)CCN(S(=O)(=O)c3ccc(F)cc3F)CC2)n1,1150
15,O=C(COc1ccccc1F)Nc1cc(C(F)(F)F)ccc1Cl,1150
16,Fc1ccc(CN2CCC(N3CC4(CCCCC4)C3c3ccncc3)CC2)cc1F (stereo not given),604
17,CCn1ccc2cc(S(=O)(=O)N3CCCN(C(=O)NC4CCCCC4)CC3)ccc21,936
18,Cc1nn(C)cc1CNC(=O)c1cnn2c(C(F)F)cc(-c3ccccc3)nc12,786
19,CN1C(C(=O)Nc2ccccn2)=C(O)c2sc(Cl)cc2S1(=O)=O,793
20,CCc1noc(C2(NC(=O)c3cc(-c4ccccc4)n[nH]3)CCCCC2)n1,906
21,COc1ccc(OCCn2c(C(F)(F)F)nc3cc4c(cc32)OCCO4)cc1,985
22,O=C(CCC(=O)N1CC2CCCN2c2ccccc21)NCc1ccco1 (stereo not given),1090
23,Cc1ccc(-c2nnc(Cc3nc(-c4ccc(F)cc4)no3)o2)cc1C,1120

row,SMILES,RP-LC retention time [s]
1,O=C1CC(/C=C/c2ccccc2)Cc2nc(N3CCN(c4ncccn4)CC3)ncc21 (stereo not given),1130
2,CCN(CC)CCSc1ccc(C(=O)N2CCN(c3ncccn3)CC2)cn1,600
3,CCn1cnc(S(=O)(=O)N2CCCC(C(=O)NCc3ccc(Cl)cc3)C2)c1 (stereo not given),756
4,CC1=C(c2ccccc2)S(=O)(=O)N=C1N1CCCN(C(=O)c2cccc(F)c2)CC1,847
5,COc1ccc(CCC(=O)N2CCC(c3cc(N)on3)CC2)cc1,681
6,CCC(C)C(NC(=O)CCc1ccccc1OC)C(=O)Nc1nc2ccccc2[nH]1 (stereo not given),783
7,Cc1ccc(CN2CCNCC2)cc1NC(=O)CNc1ccc(F)c(F)c1,639
8,CCc1ccc2c(c1)cc(S(=O)(=O)c1ccccc1)c(=O)n2CC(=O)NCc1ccc(F)cc1,971
9,CCOc1ccc(-c2csc(Cc3nc(-c4ccccc4Cl)no3)n2)cc1,1290
10,COCCC(=O)N1CCCn2nc(-c3cccs3)cc2C1,682
11,O=C(CCNc1c(-c2ccc(F)cc2)nc2cnccn12)Nc1ccc2c(c1)OCCO2,704
12,Cn1c(=O)n(CCN2CCOCC2)c(=O)c2c1nc1n2CCCN1c1ccc(Cl)cc1,643
13,COc1ccc2c(c1)C1(CCN(S(=O)(=O)c3ccc(F)c(F)c3)C1)C(=O)N2C (stereo not given),964
14,CCn1c(CCc2cccc(NS(=O)(=O)c3cnc[nH]3)c2)nc2ccccc21,524
15,O=C1COc2cc(S(=O)(=O)N3CCC(C(=O)N4CCOCC4)CC3)c(Cl)cc2N1,659
16,CN(C)c1cc(C(=O)NC2CC2)c2cccc(Cl)c2n1,746
17,Cc1cc(C)n(-c2nc(C)c(C(=O)Nc3ccc(F)cc3)s2)n1,1060
18,CC(C)Cn1nc(CNC(=O)c2cnccn2)c2ccccc21,826
19,COc1ccc(CC(=O)N2CCC3(CC2)NC(=O)c2ccc(Cl)cc2N3)cc1,787
20,COc1ccc(-c2noc(-c3nc(-c4ccccn4)no3)n2)cc1,966
21,O=C(CCCc1nnc2c(=O)n(-c3cccc(F)c3)ccn12)NCCc1c[nH]c2ccccc12,707
22,COc1ccc(OC)c(NC(=O)c2cc(C(C)(C)C)n3nccc3n2)c1,768
